“And” between values parts separate entries of the source, which are not always exact repeats. Equal entries are not always repeated. “Also recorded” adds a separate entry of the source.
How the values were obtained:
[1] = target: T1, human olfactory receptor OR1A1 (Homo sapiens, UniProt Q9P1Q5); assay: Dual-Glo luciferase assay of olfactory receptor activation (agonist dose-response); type: cell-based; conditions: for agonist activity / response of OR1A1 (in words): luciferase assay, normalized responses; for EC50: OR1A1 response, best-fit value with 95% confidence interval, EC50 = ligand concentration for half-maximal response
T1 construct: expressed in transfected cells; host or cells: HEK293T-derived cells
T1 sequence (Q9P1Q5 1-309): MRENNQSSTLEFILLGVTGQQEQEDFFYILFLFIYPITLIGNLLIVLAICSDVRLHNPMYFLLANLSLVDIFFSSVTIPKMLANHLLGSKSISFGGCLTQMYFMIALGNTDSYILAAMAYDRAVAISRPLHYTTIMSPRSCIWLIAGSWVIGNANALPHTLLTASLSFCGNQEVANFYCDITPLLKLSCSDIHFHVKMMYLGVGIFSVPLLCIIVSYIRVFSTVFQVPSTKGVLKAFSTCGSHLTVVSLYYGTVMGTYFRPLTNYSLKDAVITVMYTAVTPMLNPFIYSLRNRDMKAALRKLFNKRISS
Procedure: Olfactory receptor activation was evaluated using the Dual-Glo Luciferase Assay System (Promega (Beijing) Biotech Co., Ltd., Beijing, China). HEK293T-derived cells were maintained in minimal essential medium (Sigma) containing 10% fetal bovine serum (Sigma) (M10), 500 µg/mL penicillin–streptomycin (Invitrogen), and 6 µg/mL amphotericin B (Sigma) in a 37 °C incubator with 5% CO2. After culturing to a desired confluence, the cells were plated on 96-well plates (Corning Inc., Kennebunk, ME, USA). For each 96-well plate, 1 μg of CRE-luciferase, 0.5 μg of pRL-SV40, 0.5 μg of OR, 0.5 μg of RTP1S, and 0.25 μg of M3R were transfected using the transfection reagent Lipofectamine2000 (Invitrogen, Life Technologies Corp., Carlsbad, CA, USA). Twenty-four hours post transfection, the transfection media were removed, and the cells were rinsed with 50 μL PBS buffer (pH 7.4) per well. The cells were then stimulated with 25 μL 1% (v/v) ligand samples diluted in CD293 stimulation medium (Gibco Brand, ThermoFisher Biochemical Products (Beijing) Co., Ltd., Beijing, China). Four hours post stimulation, firefly luciferase (FL) and Renilla luciferase (RL) activities were measured following manufacturer’s protocols, using a Synergy H1 plate reader (BioTek Instruments, Winooski, VT, USA). Normalized luciferase activity was calculated using the formula: FL/RLX-FL/RLXC, where FL/RLX is the response to the ligands, FL/RLXC is the basal value of the same OR. Each experiment was repeated at least 3 times and error bars indicate standard error mean. Data were analyzed with GraphPad Prism.

OR1A1 olfactory receptor = conditions: cited from earlier work; for EC50: enantiomers of citronellol on OR1A1, already reported, reference number not given; for agonist quality on OR1A1 (in words): known OR1A1 agonists, Introduction and Figure 1, reference numbers not given

| agonist activity / response of OR1A1 (in words) [1] | EC50 [1] | Structure (SMILES) | further results |
| --- | --- | --- | --- |
| not active | – | CC(C)(C)C#CC#Cc1ccc2c(c1)C(=O)CC2 [compound 16] | – |
| – | – | CC(C)=CCC[C@H](C)CCO [(S)-7, citronellol] | EC50 (OR1A1 olfactory receptor): 92.6 µM |
| – | – | C[C@@H]1CCCCCCCCCCCCC(=O)C1 [compound 1, muscone] | agonist quality on OR1A1 (in words) (OR1A1 olfactory receptor): very poor agonists |
| essentially inactive | – | CC(=O)C#CC#Cc1ccc(C(C)(C)C)cc1 [compound 15] | – |
| displayed a stronger response | – | CC(C)(C)C#CC#Cc1ccc2c(c1)COC2 [compound 18] | – |
| strongest agonist effect | 7.45 µM and 7.41 µM | C[C@@H](O)C#CC#Cc1ccc(C(C)(C)C)cc1 [(R)-21] | – |
| – | – | CC(C)=CCCC(C)CCO (centres unmarked) [compound 7, citronellol] | agonist quality on OR1A1 (in words) (OR1A1 olfactory receptor): good agonist |
| activated OR1A1 | 35.5 µM | CC(=O)c1cccc(C#CC#CC(C)(C)C)c1 [compound 14] | – |
| weakest agonist in this alcohol series | – | CC(C)(O)C#CC#Cc1ccc(C(C)(C)C)cc1 [compound 22] | – |
| – | – | CCCCCC(=O)C(C)C(C)=O (centres unmarked) [compound 9, 3-methyl-2,4-nonanedione] | agonist quality on OR1A1 (in words) (OR1A1 olfactory receptor): extremely potent agonist |
| – | – | CC(=O)c1c(C)c([N+](=O)[O-])c(C(C)(C)C)c([N+](=O)[O-])c1C [compound 2, musk ketone] | agonist quality on OR1A1 (in words) (OR1A1 olfactory receptor): very poor agonists |
| – | 24 µM | C[C@H](O)C#CC#Cc1ccc(C(C)(C)C)cc1 [(S)-21] | – |
| – | – | CC(C)=CCC[C@@H](C)CCO [(R)-7, citronellol] | EC50 (OR1A1 olfactory receptor): 82.5 µM |

| Structure (SMILES) | agonist activity / response of OR1A1 (in words) [1] | EC50 [1] | further results |
| --- | --- | --- | --- |
| CC(C)(C)c1ccc(C#CC#CCO)cc1 [compound 20] | strong agonist activity | 42.7 µM | – |
| CC(=O)c1ccc(C#CC#CC(C)(C)C)cc1 [compound 13] | activated OR1A1 | 36.3 µM | – |
| CC(C)(C)C#CC#Cc1cccc2c1CCC2=O [compound 17] | micromolar range potency with modest to good agonist efficacy | – | – |
| CC(=O)c1cccc(C#CC#CC#CC(C)(C)C)c1 [compound 19] | did not result in an active compound; also recorded: weak agonist | – | – |
| CC(O)C#CC#Cc1ccc(C(C)(C)C)cc1 (centres unmarked) [compound 21] | much stronger interaction with the OR1A1 receptor than the corresponding ketone 15 | 43.7 µM | – |

— PMC12207589, “Exploring Linear mono-, bis- and tris-Acetylene Containing Agonists of the Human Olfactory Receptor OR1A1” (Journal of Medicinal Chemistry, 2025)
